Tests used:
[1] = system: Recalcitrant wounds; assay: Further trials of topical formulations F21 to F30, nine patients; assay type: in vivo, human; conditions: use of the component in the formulations compared to no use of it
Procedure: Topical formulations were prepared in aliquots using the following proportions—in F21, F22, and F27 to F30, the specified amounts of CBD and THCa were supplied in 2 ml of total oil volume; in F23 and F24, the specified amount of THCa was supplied in 2 ml of total oil volume and the specified amount of CBD was supplied in 4 ml of total oil volume; in F25 and F26, the specified amount of CBD was supplied in 3 ml of total oil volume:
Recalcitrant wounds of nine were treated with Formulations F21 to F30. Formulations F21, F23, F25, F27 and F29, compounded in a mixture of hyaluronic acid and aloe vera gel, were applied to wound beds. Formulations F22, F24, F26, F28 and F30, compounded in liposomal base, were applied to periwound areas. […]

[2] = system: integumentary wound; assay: General statements on tests of topical formulations on integumentary wounds; conditions: in vivo

SMILES | more rapid closure of wounds (cm^2/day), average [1] [times] | wound healing effects compared with decarboxylated tetrahydrocannabinol (THC) [2]
CCCCCc1cc2c(c(O)c1C(=O)O)[C@@H]1C=C(C)CC[C@H]1C(C)(C)O2 [THCa, tetrahydrocannabinolic acid] | 5.3 | better wound healing effects
C=CC(C)(O)CCC=C(C)C (stereo not drawn) [linalool] | 3.8 | –
